Key:
Format in all cases: cell-based
[1] = test system: B-16 cell derived from mouse melanoma; assay: Melanogenic inhibitory activity in a prescribed pigment cell (B-16); details: Experiment 2, B-16 cell; intact melanogenic inhibitor at 1 or 3 units
Procedure: The melanogenic inhibitory activity in a prescribed pigment cell is detected by the method described in Cancer Research, Vol. 42, pp. 1994-2002 (1982).
B-16 cell derived from mouse melanoma is suspended in 10 ml Eagle's minimal essential medium (Grand Island Biological Co., Grand Island, N.Y.), supplemented with 10% fetal calf serum, to give 4×10^4 cells. The suspension is placed into a 25 cm^2 Roux's flask, and cultured at 37° C. with 5% CO2. The cultivation is continued for 5 days while replacing the culture medium with a fresh one supplemented with a melanogenic inhibitor specimen at the first- and third-days. After completion of the culture, the resultant cells are washed with a phosphate buffer (pH 7.2) containing 0.8 w/v % saline to detach them from the inside wall of the Roux's flask by the addition of a solution containing trypsin and EDTA (ethylenediaminetetraacetic acid), collected on a filter paper, and dried. The resultant cells are subjected to densitometry to measure the reflection light at a wave length of 500 nm, followed by determination of the reflection absorbance (degree of darkness).
One unit of melanogenic inhibitory activity is defined as the amount of the melanogenic inhibitor which halves the reflection absorbance of B-16 cells without treatment of melanogenic inhibitor.
(§1) According to the method for detecting melanogenic inhibitory activity in a prescribed pigment cell, specimens containing 1 or 3 units of an intact melanogenic inhibitor, obtained by the method in Experiment 1, were used to compare melanogenic inhibitory activity in established melanoma cell lines, i.e., B-16 cell (mouse melanoma origin), RPMI 1846 cell (hamster melanoma origin), and Malme-3M cell (human melanoma origin).

[2] = test system: RPMI 1846 cell (hamster melanoma origin); assay: Comparison of melanogenic inhibitory activity, RPMI 1846 cell; details: Experiment 2, RPMI 1846 cell; intact melanogenic inhibitor at 1 or 3 units
Text: as §1
(§2) As control, either a system without melanogenic inhibitor or another system with melanogenic inhibitor which had been treated at […] for 2 hours was tested similarly as above.

[3] = test system: Malme-3M cell (human melanoma origin); assay: Comparison of melanogenic inhibitory activity, Malme-3M cell; details: Experiment 2, Malme-3M cell; intact melanogenic inhibitor at 1 or 3 units
Text: as §1, §2

Measured: melanogenic inhibitory activity, comparison

N[C@@H](CS)C(=O)O [cysteine]
no melanogenic inhibition: all assays above

N[C@@H](CCC(=O)N[C@@H](CS)C(=O)NCC(=O)O)C(=O)O [glutathione]
no melanogenic inhibition: all assays above

O=C1O[C@H]([C@@H](O)CO)C(O)=C1O [vitamin C]
no melanogenic inhibition: all assays above

From patent US5077059A, “Process for preparing melanogenic inhibitor, and pigmentation-lightening agent containing the same” (Yuaka; Mishimazo, priority 1987, dated 1991)
